Drawing on US9163021B2, “Pyrrolo[3,2-c]pyridine tropomyosin-related kinase inhibitors” (Pfizer Limited, priority 2012, dated 2015), this text covers IC50 for 12 compounds.

In this test the target is TRKA (Homo sapiens (Human), UniProt P04629). As to the kind of experiment: Isolated TRK enzyme assay (HTRF KinEASE-TK), PV3144 TrkA enzyme assay. The format is biochemical. Particulars: arithmetic mean where more than one reading. How it is done:
Isolated TRK Enzyme assays use the HTRF KinEASE-TK kit (Cisbio Cat#62TK0PEJ) with recombinant His-tagged cytoplasmic domains of each TRK receptor sourced from Invitrogen (see table below). This activity-assay measures the phosphorylation of tyrosine residues within a substrate from the HTRF kit which has been validated by Cisbio for a variety of tyrosine kinases including the TRK receptors.
0.5 mM stock solutions of test compounds are prepared and serially diluted in 100% DMSO. A standard curve using the compound of Example 135 disclosed in WO2005/116035 of 150 uM is also prepared on each test plate. High percentage effect (HPE) is defined by 150 uM (using the compound of Example 135 as disclosed in WO2005/116035) and 0% effect (ZPE) is defined by 100% DMSO. Greiner low volume black plates containing 0.2 ul of serially diluted compound, standard and HPE/ZPE are created using the Bravo nanoliter dispenser.
1× enzyme buffer is prepared from 5× Enzymatic Buffer from the Cisbio KinEASE TK kit using MilliQ water. The buffer is then supplemented with 10 mM MgCI and 2 mM DTT (both from Sigma). In the case of TRKB, the buffer is also supplemented with 125 nM Supplement Enzymatic Buffer (SEB) from the Cisbio kit.
2× FAC of enzyme and 2× FAC ATP diluted in 1× complete enzyme buffer is incubated at room temperature for 20 minutes to preactivate the enzyme. Following this preactivation step, 5 ul/well of enzyme+ATP mix is added using a Multidrop Micro to the assay plate, spotted with 0.2 ul 100% DMSO compound. This is left for 20 mins at room temperature before adding 5 ul of 2 uM TK-substrate-Biotin (from the Cisbio kit) diluted in 1× enzyme buffer (1 uM FAC) using the Multidrop Micro. The reaction is incubated at room temperature for the optimized assay reaction time (see table). The reaction is stopped by adding 10 ul/well HTRF Detection Buffer containing 0.25 uM Streptavidin-XL665 (0.125 uM FAC) and 1:200 TK Antibody-Cryptate using a Multidrop.
After the Detection Reagent addition, plates are covered and incubated at room temperature for 60 minutes. HTRF signal is read using an Envision reader, measured as a ratio of emissions at two different wavelengths, 620 nm and 665 nm. […] Test compound data are expressed as percentage inhibition defined by HPE and ZPE values for each plate. Percentage inhibition in the presence of test compound is plotted against compound concentration on a log scale to determine an IC50 from the resultant sigmoid curve.
Where more than one reading was taken, the arithmetic mean is presented.
A general note: In TR-FRET formats the signal depends on donor and acceptor labels being close together.

TRKA, sequence (P04629 441-796): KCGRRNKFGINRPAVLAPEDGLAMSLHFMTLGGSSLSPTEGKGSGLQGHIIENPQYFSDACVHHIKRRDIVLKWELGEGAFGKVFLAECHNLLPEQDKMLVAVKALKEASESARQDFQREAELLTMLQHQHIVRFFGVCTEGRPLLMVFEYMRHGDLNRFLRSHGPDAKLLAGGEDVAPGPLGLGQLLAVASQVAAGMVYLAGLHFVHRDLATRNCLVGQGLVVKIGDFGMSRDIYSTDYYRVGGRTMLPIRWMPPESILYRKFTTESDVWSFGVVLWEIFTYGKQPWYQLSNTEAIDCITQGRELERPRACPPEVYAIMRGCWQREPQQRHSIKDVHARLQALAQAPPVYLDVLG

A word on the IC50: it is the concentration needed to halve the response being measured. As to `O=C(Cn1cc(C(F)(F)F)nn1)Nc1cc(C(=O)c2cn(CCO)c3ccncc23)ccn1` [Example 156, N-(4-{[1-(2-hydroxyethyl)-1H-pyrrolo[3,2-c]pyridin-3-yl]carbonyl}pyridin-2-yl)-2-[4-(trifluoromethyl)-1H-1,2,3-triazol-1-yl]acetamide], the IC50 was 342 nM.
For `CC(C)n1cc(C(=O)c2ccnc(NC(=O)Cc3ccc(C#N)cc3)c2)c2cnccc21` [Example 183, 2-(4-cyanophenyl)-N-(4-{[1-(propan-2-yl)-1H-pyrrolo[3,2-c]pyridin-3-yl]carbonyl}pyridin-2-yl)acetamide], the IC50 turned out to be 17.7 nM.
In the case of `CC(CO)n1cc(C(=O)c2cncc(NC(=O)Cc3cccc(C(F)(F)F)c3)c2)c2cnccc21` (single isomer, unassigned) [Example 34, N-(5-{[1-(1-hydroxypropan-2-yl)-1H-pyrrolo[3,2-c]pyridin-3-yl]carbonyl}pyridin-3-yl)-2-[3-(trifluoromethyl)phenyl]acetamide] it was 17.1 nM.
Next, “N-(5-{[7-fluoro-1-(1-hydroxypropan-2-yl)-1H-pyrrolo[3,2-c]pyridin-3-yl]carbonyl}pyridin-3-yl)-2-[4-(trifluoromethyl)phenyl]acetamide [Example 209]”: 264 nM; `CC(C)(CO)n1cc(C(=O)c2cncc(NC(=O)Cc3ccc(Cl)cn3)c2)c2cncc(F)c21` [Example 3, 2-(5-Chloro-pyridin-2-yl)-N-{5-[7-fluoro-1-(2-hydroxy-1,1-dimethyl-ethyl)-1H-pyrrolo[3,2-c]pyridine-3-carbonyl]-pyridin-3-yl}-acetamide]: 7.85 nM.
The compound `CC(C)n1cc(C(=O)c2ccnc(NC(=O)Cc3ccon3)c2)c2cnccc21` [Example 180, 2-(1,2-oxazol-3-yl)-N-(4-{[1-(propan-2-yl)-1H-pyrrolo[3,2-c]pyridin-3-yl]carbonyl}pyridin-2-yl)acetamide] displayed an IC50 of 1080 nM.
`CC(C)n1cc(C(=O)c2cncc(NC(=O)Cc3cn(C)cn3)c2)c2cnccc21` [Example 41, 2-(1-methyl-1H-imidazol-4-yl)-N-(5-{[1-(propan-2-yl)-1H-pyrrolo[3,2-c]pyridin-3-yl]carbonyl}pyridin-3-yl)acetamide] came in with an IC50 of 3330 nM.
Next, `CC(CO)n1cc(C(=O)c2cncc(NC(=O)Cc3ccc(F)cn3)c2)c2cncc(F)c21` (single isomer, unassigned) [Example 212, N-(5-{[7-fluoro-1-(1-hydroxypropan-2-yl)-1H-pyrrolo[3,2-c]pyridin-3-yl]carbonyl}pyridin-3-yl)-2-(5-fluoropyridin-2-yl)acetamide]: 479 nM.
Next, `Cn1nc(C(C)(C)C)nc1CC(=O)Nc1cc(C(=O)c2cn(CCO)c3ccncc23)ccn1` [Example 154, 2-(3-tert-butyl-1-methyl-1H-1,2,4-triazol-5-yl)-N-(4-{[1-(2-hydroxyethyl)-1H-pyrrolo[3,2-c]pyridin-3-yl]carbonyl}pyridin-2-yl)acetamide]: 1100 nM; `CC(C)n1cc(C(=O)c2cc(NC(=O)Cn3cc(C4CC4)nn3)ccn2)c2cnccc21` [Example 52, 2-(4-cyclopropyl-1H-1,2,3-triazol-1-yl)-N-(2-{[1-(propan-2-yl)-1H-pyrrolo[3,2-c]pyridin-3-yl]carbonyl}pyridin-4-yl)acetamide]: 137 nM; `CC(C)(CO)n1cc(C(=O)c2cc(NC(=O)Cc3ccc(C(F)(F)F)cc3)ccn2)c2cnccc21` [Example 231, N-(2-{[1-(1-hydroxy-2-methylpropan-2-yl)-1H-pyrrolo[3,2-c]pyridin-3-yl]carbonyl}pyridin-4-yl)-2-[4-(trifluoromethyl)phenyl]acetamide]: 12.8 nM.
`CC(C)(CO)n1cc(C(=O)c2cncc(NC(=O)Cn3cc(C(F)(F)F)cn3)c2)c2cncc(F)c21` [Example 4, N-{5-[7-Fluoro-1-(2-hydroxy-1,1-dimethyl-ethyl)-1H-pyrrolo[3,2-c]pyridine-3-carbonyl]-pyridin-3-yl}-2-(4-trifluoromethyl-pyrazol-1-yl)-acetamide] yielded an IC50 of 5.33 nM.
